Data: patent US20260115250A1, “METHODS OF TREATING AGE-RELATED MACULAR DEGENERATION” (Character Biosciences, Inc., priority 2022, published 2026)

How the values were obtained:
[1] = system: HMC3 cells; assay: HMC3 cholesterol efflux; format: cell-based, human; conditions: HMC3, 20 μM peptide, 4 hours
Procedure: (§1) FIGS. 27A-27B and FIG. 28 illustrate HMC3 cholesterol efflux. Fully confluent 96-well plates of HMC3 cells were treated for 1 hour in serum-free EMEM containing 10 mM methyl-β-cyclodextrin, 100 μM cholesterol, and 25 μM BODIPY cholesterol. Cells were then washed and incubated overnight in serum free EMEM containing 1 μM LXR agonist GW3965, 2 μg/mL ACAT inhibitor, and 0.2% BSA (LXR Agonist treated), or serum-free EMEM containing 2 μg/mL ACAT inhibitor, and 0.2% BSA (Control). Cells were washed and incubated with 20 μM peptides diluted in serum-free Fluorobrite DMEM for 4 hours at 37° C. Media was transferred to a new 96-well plate and fresh serum-free Fluorobrite DMEM was placed on the cells. Media and cellular fluorescence were read on a Promega GloMax at 475 nm excitation, 500-550 emission. Fluorescence values were background corrected from no treatment conditions and percent efflux was calculated by the following equation: % efflux=(Media Fluorescence values)/(Media+Cell Fluorescence values). Data are presented as mean+SD over two runs per peptide.
as §1, with “FIGS. 30A-30J show” for “FIGS. 27A-27B and FIG. 28 illustrate”, “cholesterol efflux titration curves for the indicated peptides.” for “cholesterol efflux.”, “μM” for “μM LXR agonist”, “or serum free” for “or serum-free”, “with 0-100” for “with 20”, “peptides serially” for “peptides”

[2] = target: T1, ABCA1 (Homo sapiens, UniProt O95477); assay: membrane ABCA1 stability testing in ARPE-19 cells treated with mCRP; format: cell-based; conditions: ARPE-19, mCRP, 20 μM peptide, 24 hours
T1 construct: endogenous in cells; host or cells: ARPE-19
T1 sequence (O95477 whole entry): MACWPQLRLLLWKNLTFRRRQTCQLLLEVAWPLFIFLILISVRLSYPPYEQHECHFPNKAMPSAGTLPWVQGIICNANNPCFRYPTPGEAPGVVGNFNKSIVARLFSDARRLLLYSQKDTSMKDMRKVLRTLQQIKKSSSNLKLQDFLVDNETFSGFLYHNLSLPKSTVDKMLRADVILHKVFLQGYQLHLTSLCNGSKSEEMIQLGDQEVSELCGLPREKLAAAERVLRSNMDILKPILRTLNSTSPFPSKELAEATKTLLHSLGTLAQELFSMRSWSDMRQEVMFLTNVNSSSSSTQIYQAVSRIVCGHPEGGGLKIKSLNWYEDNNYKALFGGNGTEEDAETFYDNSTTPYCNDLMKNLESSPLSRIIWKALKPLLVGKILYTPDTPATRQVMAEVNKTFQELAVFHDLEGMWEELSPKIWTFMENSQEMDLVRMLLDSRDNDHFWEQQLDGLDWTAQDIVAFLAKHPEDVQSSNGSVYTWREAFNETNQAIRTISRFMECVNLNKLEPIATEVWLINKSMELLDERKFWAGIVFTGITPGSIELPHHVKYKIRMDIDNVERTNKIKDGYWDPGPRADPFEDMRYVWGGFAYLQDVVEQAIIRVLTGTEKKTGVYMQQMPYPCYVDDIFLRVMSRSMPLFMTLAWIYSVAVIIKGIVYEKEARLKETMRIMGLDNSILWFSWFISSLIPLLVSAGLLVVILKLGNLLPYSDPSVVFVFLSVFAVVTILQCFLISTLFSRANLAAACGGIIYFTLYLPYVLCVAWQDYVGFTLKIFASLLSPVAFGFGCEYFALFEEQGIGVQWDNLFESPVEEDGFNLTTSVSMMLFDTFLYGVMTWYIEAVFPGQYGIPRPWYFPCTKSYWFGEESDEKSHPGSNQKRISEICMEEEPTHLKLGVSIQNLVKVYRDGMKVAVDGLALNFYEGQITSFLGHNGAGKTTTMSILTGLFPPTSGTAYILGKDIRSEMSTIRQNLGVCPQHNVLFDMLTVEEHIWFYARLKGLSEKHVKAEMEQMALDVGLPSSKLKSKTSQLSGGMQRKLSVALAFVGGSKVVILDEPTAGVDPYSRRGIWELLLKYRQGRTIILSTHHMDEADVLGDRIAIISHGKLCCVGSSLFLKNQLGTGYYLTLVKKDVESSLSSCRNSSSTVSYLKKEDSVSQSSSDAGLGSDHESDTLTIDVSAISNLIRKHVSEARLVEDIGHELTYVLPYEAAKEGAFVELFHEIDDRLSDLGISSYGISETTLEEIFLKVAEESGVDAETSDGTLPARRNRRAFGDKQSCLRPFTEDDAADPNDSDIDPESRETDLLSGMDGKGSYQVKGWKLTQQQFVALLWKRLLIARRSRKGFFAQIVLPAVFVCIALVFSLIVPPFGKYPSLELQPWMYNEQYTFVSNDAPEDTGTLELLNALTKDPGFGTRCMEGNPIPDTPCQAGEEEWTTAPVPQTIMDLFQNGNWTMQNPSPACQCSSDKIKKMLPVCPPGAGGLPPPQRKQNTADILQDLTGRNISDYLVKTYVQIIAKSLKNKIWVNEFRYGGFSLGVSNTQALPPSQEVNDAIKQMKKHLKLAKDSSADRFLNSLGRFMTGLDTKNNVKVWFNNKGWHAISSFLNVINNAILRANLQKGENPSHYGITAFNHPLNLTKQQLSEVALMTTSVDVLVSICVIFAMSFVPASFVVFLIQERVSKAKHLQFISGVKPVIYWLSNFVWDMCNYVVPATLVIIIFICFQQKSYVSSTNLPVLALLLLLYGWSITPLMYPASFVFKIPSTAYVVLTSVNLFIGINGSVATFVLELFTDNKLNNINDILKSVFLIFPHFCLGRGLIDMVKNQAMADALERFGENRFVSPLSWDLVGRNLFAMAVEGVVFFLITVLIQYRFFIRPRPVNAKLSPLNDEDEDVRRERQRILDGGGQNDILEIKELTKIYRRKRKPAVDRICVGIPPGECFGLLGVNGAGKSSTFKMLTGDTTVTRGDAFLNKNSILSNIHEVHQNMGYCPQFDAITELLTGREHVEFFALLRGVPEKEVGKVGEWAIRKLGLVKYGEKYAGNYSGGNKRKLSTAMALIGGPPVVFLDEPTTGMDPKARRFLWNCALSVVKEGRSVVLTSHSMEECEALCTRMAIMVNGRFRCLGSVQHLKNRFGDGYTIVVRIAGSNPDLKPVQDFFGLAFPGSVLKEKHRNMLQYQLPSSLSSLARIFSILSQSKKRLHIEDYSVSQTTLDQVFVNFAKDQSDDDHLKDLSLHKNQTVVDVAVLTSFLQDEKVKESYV
Procedure: ARPE-19 cells were seeded at 100,000 cells per well on 12-well plates and were allowed to grow to confluence. To prepare monomeric CRP (mCRP), recombinant CRP was prepared in a PBS solution containing 8 M Urea and 10 mM EDTA and incubated at 37° C. for 2 hours prior to desalting with a Zeba spin column (7K MW cutoff). mCRP was prepared to a 2× solution of 20 μg/mL. A 2× solution of 40 μM peptides was prepared in serum-free DMEM and serially diluted 1:2 over 4 concentrations. mCRP and peptides were added 1:1 to cells for 24 hours at 37° C. before isolating membrane protein and measuring membrane ABCA1 levels by western blot. Blots were quantified in ImageJ. Signals were further normalized to the LXR agonist treated group to determine percent (%) ABCA1 remaining. Treatment with LXR agonist increased membrane ABCA1 levels in this assay, but following treatment with mCRP, membrane ABCA1 levels were decreased.
FIGS. 35 and 36 show membrane ABCA1 stability testing using ARPE-19 cells. ARPE-19 cells were seeded at 100,000 cells per well on 12-well plates and were allowed to grow to confluence. To prepare monomeric CRP (mCRP), recombinant CRP was prepared in a PBS solution containing 8 M Urea and 10 mM EDTA and incubated at 37° C. for 2 hours prior to desalting with a Zeba spin column (7K MW cutoff). mCRP was prepared to a 2× solution of 20 μg/mL. A 2× solution of 40 μM peptides was prepared in serum-free DMEM. CRP and peptides were added 1:1 to cells for 24 hours at 37° C. before isolating membrane protein and measuring membrane ABCA1 levels by western blot. Blots were quantified in ImageJ. In FIG. 35, Signals were further normalized to the T-087 treated group to determine percent (%) ABCA1 levels compared to peptide T-087 treated cells. In FIG. 36, Signals were further normalized to the peptide T-101 treated group to determine percent (%) ABCA1 levels compared to peptide T-101 treated cells.

[3] = DMPC solubility assay, 0.5 mM DMPC (turbidity reduction); format: biochemical; conditions: for DMPC solubilizing activity: FIGS. 2A-2D and 3A-3C; for EC50: 3.16-100 μM peptides, 15 minutes
Procedure: In this example, peptide stocks were diluted to 200 μM in H2O (a 2× solution) and 50 μL of peptide solution was transferred in triplicate into 96-well plates. A one mM solution of 1,2-dimyristoyl-sn-glycero-3-phosphocholine (DMPC) in H2O was prepared, and using a multichannel pipet, 50 μL DMPC solution was rapidly added to the plate. Peptide and lipid solutions were incubated at room temperature for 15 minutes with a final concentration of 100 μM peptides and 0.5 mM DMPC. After 15 minutes, absorbance was read on a plate reader at 405 nm. […] Data are presented as mean+SD over two runs.
In these experiments, DMPC solubility titration curves were generated. Peptide stocks were diluted to 200 μM in H2O (a 2× solution) and serially diluted in H2O over 4 concentrations, then 50 μL of peptide solutions were distributed in triplicate into 96-well plates. A 1 mM solution of 1,2-dimyristoyl-sn-glycero-3-phosphocholine (DMPC) in H2O was prepared, and using a multichannel pipet, 50 μL DMPC solution was rapidly added to the plate. Peptide and lipid solutions were incubated at room temperature for 15 minutes with final concentrations of 3.16-100 μM peptides and 0.5 mM DMPC. After 15 minutes, absorbance was read on a plate reader at 405 nm. […] Data are presented as mean+SD over two runs. Non-linear regression was used to calculate EC50 values.

Row | Substance | membrane ABCA1 levels compared to peptide T-101 treated cells [2] | cholesterol efflux in the presence of LXR agonist [1] | other results
1 | T-140: variant of peptide T-101 (RSGADALESALKELKRFIRAWT) | – | greater cholesterol efflux | –
2 | T-017: therapeutic peptide (PLRAELQEGARQKLHELQEKLSPPLRAELQEGARQKLHELQEKLS) | – | – | DMPC solubilizing activity [3]: did not have significant solubilizing activity
3 | T-142: variant of peptide T-101 (RSGADALESALKELKRFIREWA) | – | greater cholesterol efflux | –
4 | T-024: therapeutic peptide (FEHWISGIYSECKHLIQE) | – | – | DMPC solubilizing activity [3]: significant activity
5 | T-145: variant of peptide T-101 (RSGADALESGLKELKRFIREWT) | reduction of membrane ABCA1 levels | greater cholesterol efflux | –
6 | T-026: therapeutic peptide (GFGDWIDSIEAFSRSLHS) | – | – | DMPC solubilizing activity [3]: significant activity
7 | HLRKLRKRLLRDGDKLQDRLAEYQAGAKEAFDR [T-054, therapeutic peptide] | – | – | EC50 [3]: 123 µM
8 | T-005: therapeutic peptide (PLRAELQEGARQKLHELQEKLS) | – | – | DMPC solubilizing activity [3]: did not have significant solubilizing activity
9 | T-144: variant of peptide T-101 (RSGADGLESALKELKRFIREWT) | – | greater cholesterol efflux | –
10 | T-143: variant of peptide T-101 (RSGGDALESALKELKRFIREWT) | – | greater cholesterol efflux | –
11 | T-011: therapeutic peptide (DADDLQKRLAVYQAGAREGAER) | – | – | DMPC solubilizing activity [3]: significant activity
12 | HLRKLRKRLLRDGDKLSDRLAEYVARAKEAFDR [T-080, therapeutic peptide] | – | – | EC50 [3]: 155 µM
13 | T-151: variant of peptide T-101 (RSGADALESALKELKRFIRAAA) | – | greater cholesterol efflux | –
14 | T-177: variant of peptide T-087 (DAWERFRALFKEAAAYFR) | – | – | membrane ABCA1 levels compared to peptide T-087 treated cells [2]: reduction of membrane ABCA1 levels
15 | T-150: variant of peptide T-101 (RSGADALESALKELKRAAAEWT) | reduction of membrane ABCA1 levels | greater cholesterol efflux | –
16 | T-130: variant of peptide T-101 (RSGADALESPLKELKRFIREWT) | reduction of membrane ABCA1 levels | – | –
17 | T-019: therapeutic peptide (NMDEINKRLHAYEEGVKKAADE) | – | – | DMPC solubilizing activity [3]: significant activity
18 | T-137: variant of peptide T-101 (RSGADALESALKELKRAIREWT) | reduction of membrane ABCA1 levels | greater cholesterol efflux | –
19 | T-099: therapeutic peptide (RRMKDYLKKFQETLKREFRDWE) | – | – | DMPC solubilizing activity [3]: did not have significant solubilizing activity
20 | T-173: variant of peptide T-087 (AAAERFRALFKELADYFR) | – | – | membrane ABCA1 levels compared to peptide T-087 treated cells [2]: reduction of membrane ABCA1 levels
21 | T-020: therapeutic peptide (DGDKLCDRLAEYCARAKEAFDR) | – | – | DMPC solubilizing activity [3]: did not have significant solubilizing activity
22 | HLRKLRKRLLRDADDLQDRLAEYQARAKEAFDR [T-063, therapeutic peptide] | – | – | EC50 [3]: 111 µM
23 | T-134: variant of peptide T-101 (RSGADALESALKEAKRFIREWT) | reduction of membrane ABCA1 levels | greater cholesterol efflux | –
24 | T-146: variant of peptide T-101 (AAAADALESALKELKRFIREWT) | – | greater cholesterol efflux | –

Now from value to substance, other results behind:

Row | membrane ABCA1 levels compared to peptide T-101 treated cells [2] | Substance | cholesterol efflux in the presence of LXR agonist [1] | other results
25 | reduction of membrane ABCA1 levels | T-128: variant of peptide T-101 (RSGADALASALKELKRFIREWT) | greater cholesterol efflux | –
26 | reduction of membrane ABCA1 levels | T-138: variant of peptide T-101 (RSGADALESALKELKRFAREWT) | greater cholesterol efflux | –
27 | reduction of membrane ABCA1 levels | T-124: variant of peptide T-101 (RSGPDALESALKELKRFIREWT) | greater cholesterol efflux | –
28 | reduction of membrane ABCA1 levels | T-126: variant of peptide T-101 (RSGADPLESALKELKRFIREWT) | greater cholesterol efflux | –
29 | reduction of membrane ABCA1 levels | T-132: variant of peptide T-101 (RSGADALESALAELKRFIREWT) | – | –
30 | reduction of membrane ABCA1 levels | T-121: variant of peptide T-101 (ASGADALESALKELKRFIREWT) | greater cholesterol efflux | –
31 | reduction of membrane ABCA1 levels | T-141: variant of peptide T-101 (RSGADALESALKELKRFIREAT) | greater cholesterol efflux | –
32 | reduction of membrane ABCA1 levels | T-149: variant of peptide T-101 (RSGADALESALKEAAAFIREWT) | greater cholesterol efflux | –
33 | reduction of membrane ABCA1 levels | T-127: variant of peptide T-101 (RSGADAAESAAKELKRFIREWT) | – | –
34 | reduction of membrane ABCA1 levels | T-148: variant of peptide T-101 (RSGADALESAAAALKRFIREWT) | greater cholesterol efflux | –
35 | reduction of membrane ABCA1 levels | T-104: therapeutic peptide (TVRGSADALLEHLTRAWDGFNR) | – | –
36 | reduction of membrane ABCA1 levels | T-135: variant of peptide T-101 (RSGADALESALKELARFIREWT) | greater cholesterol efflux | –
